The source of these data is patent US12202818B2, “Compounds and methods for CD73 modulation and indications therefor” (Opna Bio SA, priority 2020, dated 2025).

Test [1] addresses T1, Human CD73 (amino acid residues 27-549) (Homo sapiens, UniProt P21589).
T1 construct: Human CD73 (amino acid residues 27-549); His tag (N); made in house; host or cells: E. coli
T1 sequence (P21589 27-549): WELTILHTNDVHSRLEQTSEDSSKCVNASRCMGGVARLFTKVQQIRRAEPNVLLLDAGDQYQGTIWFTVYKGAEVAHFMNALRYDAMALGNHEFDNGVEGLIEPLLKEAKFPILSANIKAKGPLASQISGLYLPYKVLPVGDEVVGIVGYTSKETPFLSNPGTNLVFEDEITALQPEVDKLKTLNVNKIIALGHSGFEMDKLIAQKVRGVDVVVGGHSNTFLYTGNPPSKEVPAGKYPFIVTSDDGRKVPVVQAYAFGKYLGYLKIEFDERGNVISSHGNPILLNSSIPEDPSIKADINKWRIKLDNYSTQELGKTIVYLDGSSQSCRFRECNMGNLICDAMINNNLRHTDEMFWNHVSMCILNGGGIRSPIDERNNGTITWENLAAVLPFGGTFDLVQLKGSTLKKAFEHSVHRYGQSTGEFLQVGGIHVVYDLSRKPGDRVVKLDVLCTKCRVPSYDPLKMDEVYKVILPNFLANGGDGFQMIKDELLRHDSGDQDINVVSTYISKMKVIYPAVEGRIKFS
Briefly: CD73 enzymatic assay (luciferase-based indirect assay, CellTiter-Glo). Type of test: biochemical. Particulars: 0.4 nM CD73, 150 μM AMP, 1 hour at room temperature. In short, it runs like this:
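N-His human CD73 (27-549) expressed in E. coli, 0.4 nM, incubated with 150 μM AMP and compound in 50 mM HEPES pH 7.4, 0.01% Tween-20, 1 h at RT. Remaining AMP read via CellTiter-Glo luminescence with 1 μM ATP after 30 min; IC50 from nonlinear regression of % inhibition.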
For orientation: In ATP-based viability assays light output follows the ATP content of the culture.

A further test addresses T2, human CD73 (Homo sapiens, UniProt P21589).
T2 construct: expressed in transfected cells
T2 sequence (P21589 27-549): T1 sequence (P21589 27-549)
Briefly: Inhibitor activity against CD73 in cell based assay (CD73 expressing CHO-K1 cells). Particulars: CHO-K1 cells expressing human CD73, 150 μM AMP, 4 hours of incubation; read-out: CHO-K1 CELL_VARIANT: CD73 IC50. An outline of the steps:
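Stable human CD73 CHO-K1 cells, 1×10^4/well, exposed to an 8-point 1:3 compound series (top 10 μM, 0.2% DMSO) plus 150 μM AMP for 4 h. Remaining AMP in the supernatant was read by CellTiter-Glo 2.0 luminescence with 1 μM ATP after 30 min at room temperature. IC50 came from nonlinear regression of % inhibition against cell and media-only controls.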

As usually defined, the IC50 is the concentration at which inhibition is half-maximal. For `CNC(=O)Cn1nc(C)c(-c2ccnc(O[C@@H]3CCN(c4cn[nH]c(=O)c4Cl)C3)c2)c1C` [P-0041, (R)-2-(4-(2-((1-(5-chloro-6-oxo-1,6-dihydropyridazin-4-yl)pyrrolidin-3-yl)oxy)pyridin-4-yl)-3,5-dimethyl-1H-pyrazol-1-yl)-N-methylacetamide], the IC50 (in test [1]; at human CD73) was 0.001 to 10 µM throughout.

For `Cc1nn(CC2CCCOC2)c(C)c1-c1ccnc(O[C@@H]2CCN(c3cn[nH]c(=O)c3Cl)C2)c1` (stereo partly drawn) [P-0043, 4-chloro-5-((3R)-3-((4-(3,5-dimethyl-1-((tetrahydro-2H-pyran-3-yl)methyl)-1H-pyrazol-4-yl)pyridin-2-yl)oxy)pyrrolidin-1-yl)pyridazin-3(2H)-one], the IC50 (in test [1]; on human CD73) was 0.001 to 10 µM in each case.

Turning to `O=c1[nH]ncc(N2CC[C@@H](Oc3cc(C4=CCCCC4)ccn3)C2)c1Cl` [P-0116, (R)-4-chloro-5-(3-((4-(cyclohex-1-en-1-yl)pyridin-2-yl)oxy)pyrrolidin-1-yl)pyridazin-3(2H)-one], the IC50 (in test [1]; on human CD73) was 0.001 to 10 µM in each case.

Regarding `Cc1c(-c2cc(F)nc(O[C@@H]3CCN(c4cn[nH]c(=O)c4Cl)C3)c2)cnn1CC1(C)COC1` [P-0151, (R)-4-chloro-5-(3-((6-fluoro-4-(5-methyl-1-((3-methyloxetan-3-yl)methyl)-1H-pyrazol-4-yl)pyridin-2-yl)oxy)pyrrolidin-l-yl)pyridazin-3(2H)-one], the IC50 (in test [1]; on human CD73) was 0.001 to 10 µM throughout.

For the compound `CC(=O)N1CCN(c2ccnc(O[C@@H]3CCN(c4cn[nH]c(=O)c4Cl)C3)c2)[C@H](C)C1` [P-0104, 5-((R)-3-((4-((R)-4-acetyl-2-methylpiperazin-1-yl)pyridin-2-yl)oxy)pyrrolidin-1-yl)-4-chloropyridazin-3(2H)-one], the results for the IC50 (in test [1]; at human CD73) were 0.001 to 10 µM and 10 to 100 µM, respectively.

Turning to `Cc1c(-c2cc(F)nc(O[C@@H]3CCN(c4cn[nH]c(=O)c4Cl)C3)c2)cnn1C` [P-0194, (R)-4-chloro-5-(3-((4-(1,5-dimethyl-1H-pyrazol-4-yl)-6-fluoropyridin-2-yl)oxy)pyrrolidin-1-yl)pyridazin-3(2H)-one], the IC50 (in test [1]; on human CD73) was 0.001 to 10 µM in each case.

Consider `Cc1noc(C)c1-c1cc(O[C@@H]2CCN(c3cnn(CCCO)c(=O)c3Cl)C2)ncn1` [P-0139, (R)-4-chloro-5-(3-((6-(3,5-dimethylisoxazol-4-yl)pyrimidin-4-yl)oxy)pyrrolidin-1-yl)-2-(3-hydroxypropyl)pyridazin-3(2H)-one], for which the IC50 (in test [1]; on human CD73) was 0.001 to 10 µM each time.

For `O=C(Nc1ccc(-c2ccnc(O[C@@H]3CCN(c4cn[nH]c(=O)c4Cl)C3)c2)c(F)c1)NC1CC1` [P-0211, (R)-1-(4-(2-((1-(5-chloro-6-oxo-1,6-dihydropyridazin-4-yl)pyrrolidin-3-yl)oxy)pyridin-4-yl)-3-fluorophenyl)-3-cyclopropylurea], the IC50 (in test [1]; at human CD73) was 0.001 to 10 µM in each case.

On to `CN1C2CCC1CN(c1ccnc(O[C@@H]3CCN(c4cn[nH]c(=O)c4Cl)C3)c1)C2` [P-0004, 4-chloro-5-((3R)-3-((4-(8-methyl-3,8-diazabicyclo[3.2.1]octan-3-yl)pyridin-2-yl)oxy)pyrrolidin-1-yl)pyridazin-3(2H)-one], for which the IC50 (in test [1]; on human CD73) was 0.001 to 10 µM in each case.

For the compound `Cc1nn(C)c(C)c1-c1cc(O[C@@H]2CCN(c3cn[nH]c(=O)c3Cl)C2)ncc1F` [P-0171, (R)-4-chloro-5-(3-((5-fluoro-4-(1,3,5-trimethyl-1H-pyrazol-4-yl)pyridin-2-yl)oxy)pyrrolidin-1-yl)pyridazin-3(2H)-one], the IC50 (in test [1]; at human CD73) was 0.001 to 10 µM each time.

In the case of `O=c1[nH]ncc(N2CC[C@@H](Oc3cc(-c4ccc(S(=O)(=O)NC5CC5)cc4Cl)ccn3)C2)c1Cl` [P-0230, (R)-3-chloro-4-(2-((1-(5-chloro-6-oxo-1,6-dihydropyridazin-4-yl)pyrrolidin-3-yl)oxy)pyridin-4-yl)-N-cyclopropylbenzenesulfonamide], the IC50 (in test [1]; at human CD73) was 0.001 to 10 µM each time.

`Cc1noc(C)c1-c1ccnc(O[C@@H]2CCN(c3cn[nH]c(=O)c3Cl)C2)c1` [P-0201, (R)-4-chloro-5-(3-((4-(3,5-dimethylisoxazol-4-yl)pyridin-2-yl)oxy)pyrrolidin-1-yl)pyridazin-3(2H)-one]: the IC50 (in test [1]; at human CD73) was 0.001 to 10 µM each time.

As for `O=C(NC1CCN(c2ccnc(O[C@@H]3CCN(c4cn[nH]c(=O)c4Cl)C3)c2)CC1)C1CC1` [P-0222, (R)-N-(1-(2-((1-(5-chloro-6-oxo-1,6-dihydropyridazin-4-yl)pyrrolidin-3-yl)oxy)pyridin-4-yl)piperidin-4-yl)cyclopropanecarboxamide], the IC50 (in test [1]; at human CD73) was 0.001 to 10 µM in each case.

`Cc1nn(C)c(C)c1-c1cc(O[C@@H]2CCN(c3cn[nH]c(=O)c3Cl)C2)ncn1` [P-0181, (R)-4-chloro-5-(3-((6-(1,3,5-trimethyl-1H-pyrazol-4-yl)pyrimidin-4-yl)oxy)pyrrolidm-1-yl)pyridazin-3(2H)-one]: the IC50 (in test [1]; on human CD73) was 0.001 to 10 µM in each case.

In the case of `Cc1noc(C)c1-c1ccnc(O[C@H]2CN(c3cnn(CCO)c(=O)c3Cl)C[C@@H]2F)c1` [P-0177, 4-chloro-5-((3S,4S)-3-((4-(3,5-dimethylisoxazol-4-yl)pyridin-2-yl)oxy)-4-fluoropyrrolidin-1-yl)-2-(2-hydroxyethyl)pyridazin-3(2H)-one], the IC50 (in test [1]; at human CD73) was 0.001 to 10 µM throughout.

As to `CC1COCCN1c1ccnc(O[C@@H]2CCN(c3cn[nH]c(=O)c3Cl)C2)c1` (stereo partly drawn) [P-0092, 4-chloro-5-((3R)-3-((4-(3-methylmorpholino)pyridin-2-yl)oxy)pyrrolidin-1-yl)pyridazin-3(2H)-one], the IC50 (in test [1]; at human CD73) was 0.001 to 10 µM throughout.

As to `Cc1nn(CC2CCC2)c(C)c1-c1cc(F)nc(O[C@@H]2CCN(c3cn[nH]c(=O)c3Cl)C2)c1` [P-0183, (R)-4-chloro-5-(3-((4-(1-(cyclobutylmethyl)-3,5-dimethyl-1H-pyrazol-4-yl)-6-fluoropyridin-2-yl)oxy)pyrrolidin-1-yl)pyridazin-3(2H)-one], the IC50 (in test [1]; at human CD73) was 0.001 to 10 µM each time.

Take `Cc1c(C)n(-c2cc(F)nc(O[C@@H]3CCN(c4cn[nH]c(=O)c4Cl)C3)c2)c2ccccc12` [P-0153, (R)-4-chloro-5-(3-((4-(2,3-dimethyl-1H-indol-1-yl)-6-fluoropyridin-2-yl)oxy)pyrrolidin-1-yl)pyridazin-3(2H)-one]: the IC50 (in test [1]; on human CD73) was 0.001 to 10 µM in each case.

As to `Cc1noc(C)c1-c1cc(O[C@@H]2CCN(c3cn[nH]c(=O)c3Cl)C2)ncc1F` [P-0149, (R)-4-chloro-5-(3-((4-(3,5-dimethylisoxazol-4-yl)-5-fluoropyridin-2-yl)oxy)pyrrolidin-1-yl)pyridazin-3(2H)-one], the IC50 (in test [1]; at human CD73) was 0.001 to 10 µM throughout.

On to `Cc1nn(C)c(C)c1-c1cncc(O[C@@H]2CCN(c3cn[nH]c(=O)c3Cl)C2)c1` [P-0168, (R)-4-chloro-5-(3-((5-(1,3,5-trimethyl-1H-pyrazol-4-yl)pyridin-3-yl)oxy)pyrrolidin-1-yl)pyridazin-3(2H)-one], for which the half-maximal inhibitory concentration (IC50) (in test [1]; on human CD73) was 0.001 to 10 µM in each case.

Regarding `Cc1nn(C2COC2)c(C)c1-c1cc(O[C@H]2CN(c3cnn(CCO)c(=O)c3Cl)C[C@@H]2F)ncc1F` [P-0007, 4-chloro-5-((3S,4S)-3-((4-(3,5-dimethyl-1-(oxetan-3-yl)-1H-pyrazol-4-yl)-5-fluoropyridin-2-yl)oxy)-4-fluoropyrrolidin-1-yl)-2-(2-hydroxyethyl)pyridazin-3(2H)-one], the IC50 (in test [1]; on human CD73) was 0.001 to 10 µM each time.

Take `Cc1nn(C2CC2)c(C)c1-c1ccnc(O[C@@H]2CCN(c3cn[nH]c(=O)c3Cl)C2)c1` [P-0022, (R)-4-chloro-5-(3-((4-(1-cyclopropyl-3,5-dimethyl-1H-pyrazol-4-yl)pyridin-2-yl)oxy)pyrrolidin-1-yl)pyridazin-3(2H)-one]: the IC50 (in test [1]; on human CD73) was 0.001 to 10 µM throughout.

Regarding `Cc1nn(CC(C)(C)O)c(C)c1-c1ccnc(O[C@H]2CN(c3cnn(CCO)c(=O)c3Cl)C[C@@H]2F)c1` [P-0015, 4-chloro-5-((3S,4S)-3-fluoro-4-((4-(1-(2-hydroxy-2-methylpropyl)-3,5-dimethyl-1H-pyrazol-4-yl)pyridin-2-yl)oxy)pyrrolidin-1-yl)-2-(2-hydroxyethyl)pyridazin-3(2H)-one], the IC50 (in test [1]; on human CD73) was 0.001 to 10 µM in each case.
